# Laboratory results published in BindingDB's records for doi:10.1101/2020.12.16.422677 (Fraunhofer Institute for Translational Medicine and …, 2020).
# Molecular target: Replicase polyprotein 1ab (Severe acute respiratory syndrome coronavirus 2, UniProt P0DTD1)
# Experiment: Hit profiling assay with DTT
row,Structure (SMILES),IC50 [nM]
1,O=C1C=Cc2cc(Br)ccc2C1=O [Bonaphthone],90
2,"Cn1sc(=O)n(Cc2ccccc2)c1=O [4-Benzyl-2-methyl-1,2,4-thiadiazolidine-3,5-dione]",140
3,CN1CCN(C(c2ccc(C(F)(F)F)cc2)c2ccc3cccnc3c2O)CC1 (configuration not stated),1340
4,CCOC(=O)Cc1ccc(-c2ccccc2)cc1 [Felbinac ethyl],80
5,Cc1c(-c2cnccn2)ssc1=S [OLTIPRAZ],110
6,"COC(=O)CC[C@H](NC(=O)[C@H](CC(=O)OC)NC(=O)OCc1ccccc1)C(=O)N[C@H](C(=O)N[C@@H](CC(=O)OC)C(=O)CF)C(C)C [US9345789, Z-DEVD-FMK]",10
7,N#CSc1cc(SC#N)c(N)nc1N [PR-619],4410
